Test results: patent US20250169498A1, “SYNERGISTIC FUNGICIDAL INTERACTIONS OF A PICOLINAMIDE FUNGICIDE WITH OTHER FUNGICIDES AGAINST ASIAN SOYBEAN RUST” (CORTEVA AGRISCIENCE LLC, priority 2020, published 2025)

Columns and labels:
[1] = test system: Phakopsora pachyrhizi, PHAKPA; test: 1-day protectant (1 DP) PHAKPA test on soybean seedlings; type: in vivo; details: alone; for pest or weed control at 0.006 ppm: rate 0.006 ppm; for pest or weed control at 0.024 ppm: rate 0.024 ppm; for pest or weed control at 0.0015 ppm: rate 0.0015 ppm; for pest or weed control at 0.049 ppm: rate 0.049 ppm; for pest or weed control at 12.5 ppm: rate 12.5 ppm
Protocol: (§1) Fungicides were evaluated vs. PHAKPA either alone or in binary or ternary mixtures by combining each fungicide with Compound I. Technical grades of materials were dissolved in 1.5 ml of acetone, which were then mixed with 13.5 ml of water containing 0.011% Tween 20. The fungicide solutions were applied onto soybean seedlings using an automated booth sprayer to run-off. All sprayed plants were allowed to air dry prior to further handling. Soybean plants (variety Williams 82) were grown in soil-less Metro mix, with one plant per pot. Two weeks old seedlings were used for testing. Plants were inoculated either 3 days prior to or 1 day after fungicide treatments. Plants were incubated for 24 h in a dark dew room at 22° C. and 100% RH then transferred to a growth room at 23° C. for disease to develop. Once disease fully expressed on untreated plants, disease severity was assessed on the sprayed monofoliate leaves.
(§2) Synergy factors were calculated using Colby's method. The expected disease control (% DC exp) of a mixture consisting of two or three components can be predicted by the following formula: […]
(§3) where A, B, C are the percent disease control given by the individual fungicide component at the defined rate in the mixture. If the ratio (synergy factor) between the observed disease control of the mixture (% DCobs) and the expected disease control of the mixture (% DCexp) is greater than 1, synergistic interaction is present.
(§4) When disease fully developed on the control plants, infection levels were assessed on treated plants visually and scored on a scale of 0 to 100 percent. Percentage of disease control was then calculated using the ratio of disease on treated plants relative to control plants. […]

[2] = test system: Phakopsora pachyrhizi, PHAKPA; test: 3-day curative (3 DC) PHAKPA test on soybean seedlings; type: in vivo; details: alone; for pest or weed control at 0.024 ppm: rate 0.024 ppm; for pest or weed control at 0.195 ppm: rate 0.195 ppm; for pest or weed control at 0.049 ppm: rate 0.049 ppm
Protocol: as §1, §2, §3, §4

[3] = Phakopsora pachyrhizi, read-out: % DC obs
[4] = Phakopsora pachyrhizi, rate 0.39 ppm, read-out: % DC obs
[5] = Phakopsora pachyrhizi, rate 0.195 ppm, read-out: % DC obs
[6] = Phakopsora pachyrhizi, rate 0.78 ppm, read-out: % DC obs
[7] = Phakopsora pachyrhizi, rate 3.125 ppm, read-out: % DC obs
[8] = Phakopsora pachyrhizi, rate 37.5 ppm, read-out: % DC obs
[9] = Phakopsora pachyrhizi, rate 75 ppm, read-out: % DC obs
[10] = Phakopsora pachyrhizi, rate 0.19 ppm, read-out: % DC obs
[11] = Phakopsora pachyrhizi, rate 200 ppm, read-out: % DC obs
[12] = Phakopsora pachyrhizi, rate 0.012 ppm, read-out: % DC obs

Fc1ccc([C@]2(Cn3cncn3)O[C@H]2c2ccccc2Cl)cc1 (racemic) [Epoxiconazole, rel-1-[[(2R,3S)-3-(2-chlorophenyl)-2-(4-fluorophenyl)oxiranyl]methyl]-1H-1,2,4-triazole]
pest or weed control at 0.006 ppm [1, 3]: 3.7%
pest or weed control at 0.024 ppm [1, 3]: 48.1%
pest or weed control at 0.024 ppm [2, 3]: 0%

CO/C=C(/C(=O)OC)c1ccccc1Oc1cc(Oc2ccccc2C#N)ncn1 [Azoxystrobin, methyl (αE)-2-[[6-(2-cyanophenoxy)-4-pyrimidinyl]oxy]-α-(methoxymethylene)benzeneacetate]
pest or weed control at 0.024 ppm [1, 3]: 22.2%
pest or weed control at 0.098 ppm ([1]; Phakopsora pachyrhizi, rate 0.098 ppm, read-out: % DC obs): 50.4%
pest or weed control at 0.39 ppm [2, 4]: 31.7%

Cn1cc(C(=O)Nc2cccc3c2C2CCC3C2=C(Cl)Cl)c(C(F)F)n1 (stereo not shown) [Benzovindiflupyr, N-[11-(dichloromethylidene)-3-tricyclo[6.2.1.0]undeca-2(7),3,5-trienyl]-3-(difluoromethyl)-1-methylpyrazole-4-carboxamide]
% DC obs ([1]; rate 0.195 ppm): 3.7%
% DC obs ([1]; rate 0.78 ppm): 11.1%
% DC obs ([1]; rate 3.125 ppm): 80.0%
% DC obs ([2]; rate 0.78 ppm): 11.7%

Cn1cc(C(=O)Nc2ccc(F)cc2-c2ccc(Cl)c(Cl)c2)c(C(F)F)n1 [Bixafen, N-(3′,4′-dichloro-5-fluoro[1,1′-biphenyl]-2-yl)-3-(difluoromethyl)-1-methyl-1H-pyrazole-4-carboxamide]
pest or weed control at 0.195 ppm [1, 5]: 0%
pest or weed control at 0.78 ppm [2, 6]: 0%
pest or weed control at 3.125 ppm [2, 7]: 0%

N#Cc1c(Cl)c(Cl)c(Cl)c(C#N)c1Cl [Chlorothalonil, tetrachlorisophthalonitrile]
pest or weed control at 37.5 ppm [1, 8]: 0%
pest or weed control at 75 ppm [1, 9]: 87%
pest or weed control at 37.5 ppm [2, 8]: 4.6%
pest or weed control at 75 ppm [2, 9]: 13.7%
pest or weed control at 150 ppm ([2]; Phakopsora pachyrhizi, rate 150 ppm, read-out: % DC obs): 18.3%

CCC(=O)Oc1c(OC)ccnc1C(=O)N[C@@H](C)C(=O)O[C@@H](C)[C@@H](C)c1ccccc1C [Compound I]
pest or weed control at 0.39 ppm [1, 4]: 79.2%
pest or weed control at 1.56 ppm ([2]; Phakopsora pachyrhizi, rate 1.56 ppm, read-out: % DC obs): 77.6%

[Cl-].[Cu+2].[Cu+2].[OH-].[OH-].[OH-] [Cu Oxychloride]
% DC obs ([2]; rate 200 ppm): 13.7%

CC(C1CC1)C(O)(Cn1cncn1)c1ccc(Cl)cc1 (stereo not shown) [Cyproconazole, 2-(4-chlorophenyl)-3-cyclopropyl-1-(1,2,4-triazol-1-yl)butan-2-ol]
pest or weed control at 0.0015 ppm [1, 3]: 11.1%
pest or weed control at 0.006 ppm [1, 3]: 3.7%
pest or weed control at 0.024 ppm [1, 3]: 11.1%

CC1COC(Cn2cncn2)(c2ccc(Oc3ccc(Cl)cc3)cc2Cl)O1 (stereo not shown) [Difenoconazole, 1-[[2-[2-chloro-4-(4-chlorophenoxy)phenyl]-4-methyl-1,3-dioxolan-2-yl]methyl]-1,2,4-triazole]
pest or weed control at 0.19 ppm [1, 10]: 41.9%
pest or weed control at 0.19 ppm [2, 10]: 18.3%

CC(Cc1ccc(C(C)(C)C)cc1)CN1C[C@@H](C)O[C@@H](C)C1 (stereo partly drawn) [Fenpropimorph, (2S,6R)-4-[3-(4-tert-butylphenyl)-2-methylpropyl]-2,6-dimethylmorpholine]
pest or weed control at 100 ppm ([2]; Phakopsora pachyrhizi, rate 100 ppm, read-out: % DC obs): 36.4%
pest or weed control at 200 ppm [2, 11]: 61.9%

Cn1cc(C(=O)Nc2ccccc2-c2cc(F)c(F)c(F)c2)c(C(F)F)n1 [Fluxapyroxad, 3-(difluoromethyl)-1-methyl-N-[2-(3,4,5-trifluorophenyl)phenyl]pyrazole-4-carboxamide]
pest or weed control at 0.195 ppm [1, 5]: 3.7%
pest or weed control at 0.78 ppm [1, 6]: 11.1%
pest or weed control at 3.125 ppm [1, 7]: 80%
pest or weed control at 0.195 ppm [2, 3]: 0%
pest or weed control at 3.125 ppm [2, 7]: 17.6%

CC(O)(Cn1cncn1)c1ccc(Oc2ccc(Cl)cc2)cc1C(F)(F)F (stereo not shown) [Mefentrifluconazole, 2-[4-(4-chlorophenoxy)-2-(trifluoromethyl)phenyl]-1-(1,2,4-triazol-1-yl)propan-2-ol]
pest or weed control at 0.049 ppm [1, 3]: 9.9%
pest or weed control at 0.195 ppm [1, 5]: 87%
pest or weed control at 0.049 ppm [2, 3]: 43.7%
pest or weed control at 0.195 ppm [2, 3]: 69.1%

CNC(=O)/C(=N/OC)c1ccccc1Oc1ccccc1 [Metominostrobin, (2E)-2-methoxyimino-N-methyl-2-(2-phenoxyphenyl)acetamide]
pest or weed control at 0.78 ppm [1, 6]: 0%
pest or weed control at 3.125 ppm [1, 7]: 11.1%
pest or weed control at 12.5 ppm [1, 3]: 64.4%
pest or weed control at 0.78 ppm [2, 6]: 33.3%
pest or weed control at 3.125 ppm [2, 7]: 67.6%

CO/C=C(/C(=O)OC)c1ccccc1COc1cccc(C(F)(F)F)n1 [Picoxystrobin, methyl (E)-3-methoxy-2-[2-[[6-(trifluoromethyl)pyridin-2-yl]oxymethyl]phenyl]prop-2-enoate]
pest or weed control at 0.195 ppm [1, 5]: 0%
pest or weed control at 0.78 ppm [1, 6]: 80%
% DC obs ([1]; rate 0.195 ppm): 0%
% DC obs ([1]; rate 0.78 ppm): 80%
pest or weed control at 0.049 ppm [2, 3]: 18.5%
pest or weed control at 0.195 ppm [2, 3]: 14.8%
pest or weed control at 0.78 ppm [2, 6]: 53.3%

CCCC1COC(Cn2cncn2)(c2ccc(Cl)cc2Cl)O1 (stereo not shown) [Propiconazole, 1-[[2-(2,4-dichlorophenyl)-4-propyl-1,3-dioxolan-2-yl]methyl]-1,2,4-triazole]
pest or weed control at 0.195 ppm [1, 5]: 19.9%
pest or weed control at 0.78 ppm [1, 6]: 78%
pest or weed control at 0.049 ppm [2, 3]: 9.2%
pest or weed control at 0.195 ppm [2, 3]: 59.1%

OC(Cc1ccccc1Cl)(Cn1[nH]cnc1=S)C1(Cl)CC1 (stereo not shown) [Prothioconazole, 2-[2-(1-chlorocyclopropyl)-3-(2-chlorophenyl)-2-hydroxypropyl]-1,2-dihydro-3H-1,2,4-triazole-3-thione]
pest or weed control at 0.0015 ppm [1, 3]: 0%
pest or weed control at 0.006 ppm [1, 3]: 7.4%

CON(C(=O)c1cn(C)nc1C(F)F)C(C)Cc1c(Cl)cc(Cl)cc1Cl (stereo not shown) [Pydiflumetofen, 3-(difluoromethyl)-N-methoxy-1-methyl-N-[1-(2,4,6-trichlorophenyl)propan-2-yl]pyrazole-4-carboxamide]
pest or weed control at 12.5 ppm [1, 3]: 0%
pest or weed control at 50 ppm ([1]; Phakopsora pachyrhizi, rate 50 ppm, read-out: % DC obs): 15.3%
pest or weed control at 200 ppm [1, 11]: 85.4%

CC(C)(C)C(O)(CCc1ccc(Cl)cc1)Cn1cncn1 (stereo not shown) [Tebuconazole, 1-(4-chlorophenyl)-4,4-dimethyl-3-(1,2,4-triazol-1-ylmethyl)pentan-3-ol]
pest or weed control at 0.0015 ppm [1, 3]: 0%
pest or weed control at 0.006 ppm [1, 3]: 11.1%
pest or weed control at 0.0015 ppm ([2]; Phakopsora pachyrhizi, rate 0.0015 ppm, read-out: % DC obs): 0%
pest or weed control at 0.006 ppm ([2]; Phakopsora pachyrhizi, rate 0.006 ppm, read-out: % DC obs): 0%
pest or weed control at 0.024 ppm [2, 3]: 11.7%

FC(F)C(F)(F)OCC(Cn1cncn1)c1ccc(Cl)cc1Cl (stereo not shown) [Tetraconazole, 1-[2-(2,4-dichlorophenyl)-3-(1,1,2,2-tetrafluoroethoxy)propyl]-1,2,4-triazole]
pest or weed control at 0.012 ppm [1, 12]: 0%
pest or weed control at 0.049 ppm [1, 3]: 0%
pest or weed control at 0.195 ppm [1, 5]: 90%
pest or weed control at 0.012 ppm [2, 12]: 13.7%
pest or weed control at 0.049 ppm [2, 3]: 13.7%

CO/N=C(/C(=O)OC)c1ccccc1CO/N=C(\C)c1cccc(C(F)(F)F)c1 [Trifloxystrobin, methyl (2E)-2-methoxyimino-2-[2-[[(E)-1-[3-(trifluoromethyl)phenyl]ethylideneamino]oxymethyl]phenyl]acetate]
pest or weed control at 0.195 ppm [2, 3]: 18.3%

zinc manganese(2+)N-[2-(sulfidocarbothioylamino)ethyl]carbamodithioate [Mancozeb]
% DC obs ([1]; rate 0.19 ppm): 3.8%
% DC obs ([1]; rate 0.78 ppm): 0%
% DC obs ([1]; rate 3.125 ppm): 0%
% DC obs ([2]; rate 0.19 ppm): 14.8%
% DC obs ([2]; rate 0.78 ppm): 14.8%
% DC obs ([2]; rate 3.125 ppm): 0%
% DC obs ([2]; rate not given): 0%
